From ChEMBL document CHEMBL1139415, “Highly functionalized 7-azaindoles as selective PPAR gamma modulators” (Bioorg Med Chem Lett, 2008)
Active and inactive are the calls of the source. The rule behind the calls is not given here.

How the values were obtained:
Cytochrome P450 2C9 = Cytochrome P450 2C9 (Homo sapiens, UniProt P11712); assay: Inhibition of CYP2C9; format: ADME
[1] = target: T1, Peroxisome proliferator-activated receptor gamma (Homo sapiens, UniProt P37231); assay: Displacement of [3H]2AD-5075 from GST-tagged human PPARgamma receptor expressed in Escherichia coli BL21
T1 sequence (P37231 whole entry): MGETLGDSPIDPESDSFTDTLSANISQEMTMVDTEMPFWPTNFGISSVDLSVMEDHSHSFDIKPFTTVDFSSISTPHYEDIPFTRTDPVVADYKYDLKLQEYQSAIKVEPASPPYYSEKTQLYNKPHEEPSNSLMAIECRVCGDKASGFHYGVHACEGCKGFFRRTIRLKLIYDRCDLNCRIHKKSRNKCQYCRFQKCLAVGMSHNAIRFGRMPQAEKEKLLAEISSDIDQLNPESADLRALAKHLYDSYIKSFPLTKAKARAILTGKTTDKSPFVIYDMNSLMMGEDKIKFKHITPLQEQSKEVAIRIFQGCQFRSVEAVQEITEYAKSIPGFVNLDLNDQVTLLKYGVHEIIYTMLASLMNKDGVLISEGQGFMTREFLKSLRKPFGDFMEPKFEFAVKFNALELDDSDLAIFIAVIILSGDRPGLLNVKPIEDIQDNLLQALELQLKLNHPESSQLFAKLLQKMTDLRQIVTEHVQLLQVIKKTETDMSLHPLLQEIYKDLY

[2] = target: T1, Peroxisome proliferator-activated receptor gamma; assay: Agonist activity at human PPARgamma receptor expressed in african green monkey COS cells after 48 hrs by GAL4 transactivation assay; format: functional, cell-based
[3] = Clearance in Sprague-Dawley rat at 0.5 mg, iv and 2.0 mg, po; format: ADME, organism-based; settings: in vivo
[4] = Half life in Sprague-Dawley rat at 0.5 mg, iv and 2.0 mg, po; format: ADME, organism-based; settings: in vivo
[5] = Bioavailability in Sprague-Dawley rat at 0.5 mg, iv and 2.0 mg, po; format: ADME, organism-based; settings: in vivo
[6] = target: T2, Peroxisome proliferator-activated receptor alpha (Homo sapiens, UniProt Q07869); assay: (§1) Binding affinity to human PPARalpha
T2 sequence (Q07869 whole entry): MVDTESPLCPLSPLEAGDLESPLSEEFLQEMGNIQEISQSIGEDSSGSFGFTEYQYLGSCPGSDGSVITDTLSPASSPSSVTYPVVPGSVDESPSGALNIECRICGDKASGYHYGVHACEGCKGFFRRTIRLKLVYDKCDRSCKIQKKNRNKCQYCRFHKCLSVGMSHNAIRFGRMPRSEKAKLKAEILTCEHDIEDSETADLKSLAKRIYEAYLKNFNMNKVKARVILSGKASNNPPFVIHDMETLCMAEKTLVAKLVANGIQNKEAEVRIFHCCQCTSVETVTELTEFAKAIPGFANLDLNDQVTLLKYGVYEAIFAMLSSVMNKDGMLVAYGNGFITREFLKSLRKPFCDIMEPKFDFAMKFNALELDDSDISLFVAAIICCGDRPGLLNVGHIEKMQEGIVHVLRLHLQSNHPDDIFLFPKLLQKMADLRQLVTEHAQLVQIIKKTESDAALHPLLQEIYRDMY

[7] = target: T3, Peroxisome proliferator-activated receptor delta (Homo sapiens, UniProt Q03181); assay: Binding affinity to PPARdelta
T3 sequence (Q03181 whole entry): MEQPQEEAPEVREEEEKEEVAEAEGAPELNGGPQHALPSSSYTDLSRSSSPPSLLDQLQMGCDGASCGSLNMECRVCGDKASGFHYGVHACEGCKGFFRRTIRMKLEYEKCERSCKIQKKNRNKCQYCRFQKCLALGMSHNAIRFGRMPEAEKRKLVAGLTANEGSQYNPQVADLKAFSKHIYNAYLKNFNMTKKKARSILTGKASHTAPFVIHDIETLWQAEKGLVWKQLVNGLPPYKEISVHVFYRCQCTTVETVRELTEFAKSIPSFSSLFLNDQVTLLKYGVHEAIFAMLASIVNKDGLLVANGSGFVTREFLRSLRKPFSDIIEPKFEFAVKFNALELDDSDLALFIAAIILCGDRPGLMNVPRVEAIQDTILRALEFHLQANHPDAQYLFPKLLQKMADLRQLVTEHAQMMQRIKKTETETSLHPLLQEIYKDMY

Mus musculus [8] = assay: Antiglycemic activity in db/db mouse assessed as glucose correction at 10 mg/kg, po administered daily for 11 days; format: functional
Mus musculus [9] = assay: Antiglycemic activity in db/db mouse assessed as glucose correction at 30 mg/kg, po administered daily for 11 days; format: functional
Mus musculus [10] = assay: Antiglycemic activity in db/db mouse assessed as glucose correction at 50 mg/kg, po administered daily for 11 days; format: functional
[11] = target: Peroxisome proliferator-activated receptor alpha (Homo sapiens) (UniProt Q07869); assay: as §1
[12] = target: T4, Peroxisome proliferator-activated receptor alpha (Mus musculus) (UniProt P23204); assay: Binding affinity to mouse PPARalpha
T4 sequence (whole entry): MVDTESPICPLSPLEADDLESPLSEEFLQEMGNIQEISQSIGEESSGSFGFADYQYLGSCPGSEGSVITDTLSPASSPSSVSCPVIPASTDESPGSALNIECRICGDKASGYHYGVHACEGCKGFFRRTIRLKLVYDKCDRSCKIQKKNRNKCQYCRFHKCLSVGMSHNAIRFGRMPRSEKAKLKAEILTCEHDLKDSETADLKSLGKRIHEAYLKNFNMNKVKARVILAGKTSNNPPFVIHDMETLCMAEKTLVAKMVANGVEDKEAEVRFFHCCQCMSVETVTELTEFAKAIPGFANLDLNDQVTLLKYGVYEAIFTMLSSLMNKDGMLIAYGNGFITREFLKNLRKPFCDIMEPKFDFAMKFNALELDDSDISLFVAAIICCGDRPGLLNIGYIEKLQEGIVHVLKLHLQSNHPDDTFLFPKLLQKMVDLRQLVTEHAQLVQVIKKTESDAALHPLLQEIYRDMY

Mus musculus [13] = assay: Antiglycemic activity in db/db mouse assessed as glucose correction at 20 mg/kg, po administered daily for 11 days; format: functional
Cytochrome P450 3A4 = Cytochrome P450 3A4 (Homo sapiens, UniProt P08684); assay: Inhibition of CYP3A4; format: ADME
Cytochrome P450 3A4, sequence (P08684 whole entry): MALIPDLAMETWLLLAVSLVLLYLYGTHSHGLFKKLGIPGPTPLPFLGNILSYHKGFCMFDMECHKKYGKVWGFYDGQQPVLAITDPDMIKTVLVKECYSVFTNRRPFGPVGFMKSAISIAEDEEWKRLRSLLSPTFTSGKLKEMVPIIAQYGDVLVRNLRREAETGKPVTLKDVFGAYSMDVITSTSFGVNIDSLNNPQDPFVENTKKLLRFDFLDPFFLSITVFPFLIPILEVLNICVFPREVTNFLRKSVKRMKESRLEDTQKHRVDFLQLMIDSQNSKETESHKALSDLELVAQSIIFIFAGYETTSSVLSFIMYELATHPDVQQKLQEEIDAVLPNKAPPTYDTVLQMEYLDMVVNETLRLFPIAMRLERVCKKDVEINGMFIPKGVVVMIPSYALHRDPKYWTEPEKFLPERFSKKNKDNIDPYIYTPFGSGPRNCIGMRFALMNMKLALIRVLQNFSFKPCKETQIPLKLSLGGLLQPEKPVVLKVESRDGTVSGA

[14] = target: Thromboxane A2 receptor (Homo sapiens) (UniProt P21731); assay: Inhibition of TXA2 receptor at 10 uM
Thromboxane A2 receptor (Homo sapiens), sequence (P21731 whole entry): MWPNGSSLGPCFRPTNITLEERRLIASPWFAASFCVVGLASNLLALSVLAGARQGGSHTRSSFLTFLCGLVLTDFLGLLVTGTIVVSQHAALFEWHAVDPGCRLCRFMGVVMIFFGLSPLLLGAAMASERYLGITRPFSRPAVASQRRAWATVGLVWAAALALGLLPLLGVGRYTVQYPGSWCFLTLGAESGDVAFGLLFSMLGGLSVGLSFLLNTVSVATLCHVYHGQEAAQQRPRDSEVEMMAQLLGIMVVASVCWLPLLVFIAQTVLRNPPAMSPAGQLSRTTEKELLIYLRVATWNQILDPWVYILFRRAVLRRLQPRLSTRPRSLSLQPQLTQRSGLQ

Cytochrome P450 2C9, sequence (P11712 whole entry): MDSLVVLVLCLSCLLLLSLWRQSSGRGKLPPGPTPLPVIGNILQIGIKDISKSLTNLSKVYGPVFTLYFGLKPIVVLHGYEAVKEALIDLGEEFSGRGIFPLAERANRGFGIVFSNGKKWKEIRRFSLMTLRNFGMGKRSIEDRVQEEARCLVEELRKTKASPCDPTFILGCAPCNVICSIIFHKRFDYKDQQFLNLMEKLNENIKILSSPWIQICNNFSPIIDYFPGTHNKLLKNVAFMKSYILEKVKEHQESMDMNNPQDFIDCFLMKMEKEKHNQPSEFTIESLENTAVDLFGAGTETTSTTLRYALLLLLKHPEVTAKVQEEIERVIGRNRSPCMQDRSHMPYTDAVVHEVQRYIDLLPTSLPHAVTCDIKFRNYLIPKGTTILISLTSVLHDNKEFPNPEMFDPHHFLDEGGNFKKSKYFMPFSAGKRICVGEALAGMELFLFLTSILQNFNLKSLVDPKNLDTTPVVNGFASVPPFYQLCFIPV

| SMILES | IC50 (Cytochrome P450 2C9) [nM] | IC50 [1] [nM] | EC50 [2] [nM] | clearance [3] [mL/min/kg] | half-life [4] [h] | bioavailability [5] [%] | IC50 [6] [nM] | IC50 [7] [nM] | Activity (Mus musculus [8]) [%] | Activity (Mus musculus [9]) [%] | Activity (Mus musculus [10]) [%] | Activity [11] | Activity [12] | Activity (Mus musculus [13]) [%] | IC50 (Cytochrome P450 3A4) [nM] | %max [12] [%] | inhibition [14] [%] |
| --- | --- | --- | --- | --- | --- | --- | --- | --- | --- | --- | --- | --- | --- | --- | --- | --- | --- |
| Cc1c(C(=O)c2ccc(Cl)cc2)c2ccc(OC(F)(F)F)cc2n1Cc1cccc(O[C@@H](C)C(=O)O)c1 | 5600 | 1 | 1 | 21.7 | 1.5 | 45 |  |  |  |  |  |  |  |  |  |  |  |
| COc1ccc(C(=O)c2c(C)n(Cc3cc(O[C@@H](C)C(=O)O)ccc3F)c3nc(OC)ccc23)cc1 |  | 2 | 1 | 7.4 | 1.4 | 37 | > 50000 | > 50000 | 33 | 35 | 34 |  |  |  |  |  |  |
| Cc1c(Oc2ccc(Cl)cc2)c2cccnc2n1Cc1ccc(F)c(O[C@@H](C)C(=O)O)c1 |  | 106 | 140 |  |  |  | > 50000 | > 50000 |  |  |  |  |  |  |  |  |  |
| COc1ccc(C(=O)c2c(C)n(Cc3cccc(O[C@@H](C)C(=O)O)c3)c3nc(C)ccc23)cc1 |  | 16 | 9 | 28 | 2.4 | 80 | > 50000 | > 50000 | 42 |  |  |  |  |  |  |  |  |
| CN(CCOc1ccc(CC2SC(=O)NC2=O)cc1)c1ccccn1 (stereo unspecified) [ROSIGLITAZONE] |  |  |  |  |  |  |  |  | 90 |  |  |  |  |  |  |  |  |
| Cc1c(Oc2ccc(Cl)cc2)c2ccc(F)nc2n1Cc1ccc(Cl)c(O[C@@H](C)C(=O)O)c1 |  | 3 | 4 | 23 | 0.8 | 47 | > 50000 | > 50000 |  | 30 |  |  |  |  |  |  |  |
| Cc1c(Oc2ccc(Cl)cc2)c2cccnc2n1Cc1cc(O[C@@H](C)C(=O)O)ccc1Cl |  | 25 | 36 | 21.8 | 1.2 | 61 | > 50000 | > 50000 |  |  |  |  |  |  |  |  |  |
| COc1ccc(C(=O)c2c(C)n(Cc3ccc(F)c(O[C@@H](C)C(=O)O)c3)c3ncccc23)cc1 |  | 10 | 3 |  |  |  | > 50000 | > 50000 |  |  |  |  |  |  |  |  |  |
| COc1ccc(C(=O)c2c(C)n(Cc3cccc(O[C@H](C)C(=O)O)c3)c3ncccc23)cc1 |  | 726 | 2930 |  |  |  |  | > 50000 |  |  |  | Active | Active |  |  |  |  |
| Cc1c(Oc2ccc(Cl)cc2)c2ccc(C(F)(F)F)nc2n1Cc1ccc(Cl)c(O[C@@H](C)C(=O)O)c1 |  | 22 | 23 | 12.4 | 1.9 | 61 | > 50000 | > 50000 |  |  | 56 |  |  | 18 |  |  |  |
| COc1ccc(C(=O)c2c(C)n(Cc3ccc(Cl)c(O[C@@H](C)C(=O)O)c3)c3nc(OC)ccc23)cc1 |  | < 1 | 1 |  |  |  | > 50000 | > 50000 |  |  |  |  |  |  |  |  |  |
| COc1ccc(C(=O)c2c(C)n(Cc3ccc(F)c(O[C@@H](C)C(=O)O)c3)c3nc(OC)ccc23)cc1 |  | 1 | 1 |  |  |  |  |  | 23 |  |  | 489 nM | 222 nM |  |  |  |  |
| Cc1c(Oc2ccc(Cl)cc2)c2cccnc2n1Cc1cc(O[C@@H](C)C(=O)O)ccc1F |  | 54 | 156 | 22.1 | 1.6 | 77 | > 50000 | > 50000 |  |  |  |  |  |  |  |  |  |
| COc1ccc(C(=O)c2c(C)n(Cc3cccc(O[C@@H](C)C(=O)O)c3)c3ncccc23)cc1 |  | 66 | 27 | 115 | 2 | 29 | > 50000 | > 50000 | 29 |  |  |  |  |  | > 100000 |  |  |
| Cc1c(Oc2ccc(Cl)cc2)c2ccc(Cl)nc2n1Cc1ccc(Cl)c(O[C@@H](C)C(=O)O)c1 |  | 3 | 4 | 27 | 1.2 | 56 | > 50000 | > 50000 | 32 | 44 |  |  |  |  |  |  |  |
| COc1ccc(C(=O)c2c(C)n(Cc3cc(O[C@@H](C)C(=O)O)ccc3F)c3nc(C)ccc23)cc1 |  | 4 | 2 | 32 | 1.9 | 105 |  |  | 63 |  |  |  | 500 nM |  |  | 28 |  |
| Cc1c(Oc2ccc(Cl)cc2)c2ccc(F)nc2n1Cc1ccc(F)c(O[C@@H](C)C(=O)O)c1 |  | 23 | 94 |  |  |  | > 50000 | > 50000 |  |  |  |  |  |  |  |  |  |
| COc1ccc(C(=O)c2c(C)n(Cc3cc(O[C@@H](C)C(=O)O)ccc3F)c3ncccc23)cc1 |  | 5 | 3 | 31.7 | 1.8 | 51 | > 50000 | > 50000 |  |  |  |  |  | 44 |  |  | 64 |
| COc1ccc(C(=O)c2c(C)n(Cc3cc(O[C@@H](C)C(=O)O)ccc3Cl)c3nc(OC)ccc23)cc1 |  | 2 | 2 |  |  |  | > 50000 | > 50000 |  | 32 |  |  |  |  |  |  |  |
| Cc1c(Oc2ccc(Cl)cc2)c2ccc(F)nc2n1Cc1cc(O[C@@H](C)C(=O)O)ccc1Cl |  | 15 | 4 |  |  |  | > 50000 | > 50000 |  |  |  |  |  |  |  |  |  |
